Test results published in PMC9628870 (Journal of Microbiology and Biotechnology, 2022).

Target: T1, Burkholderia pseudomallei L-asparaginase (Burkholderia pseudomallei, UniProt Q63UZ6)
T1 construct: gene ansB
Details: 10 mM substrate, 50 mM Tris-HCl pH 8.6, 37 °C, 10 min

T1 sequence (Q63UZ6 1-347 limits assumed): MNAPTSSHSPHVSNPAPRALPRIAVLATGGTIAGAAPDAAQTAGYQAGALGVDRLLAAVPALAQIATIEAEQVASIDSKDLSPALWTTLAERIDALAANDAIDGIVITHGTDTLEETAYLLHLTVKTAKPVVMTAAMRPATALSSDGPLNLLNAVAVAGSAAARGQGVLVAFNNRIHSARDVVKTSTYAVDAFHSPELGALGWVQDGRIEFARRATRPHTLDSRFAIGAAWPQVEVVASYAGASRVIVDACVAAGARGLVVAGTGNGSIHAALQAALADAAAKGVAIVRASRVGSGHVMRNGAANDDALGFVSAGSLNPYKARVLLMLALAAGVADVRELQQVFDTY

NC(=O)C[C@H](N)C(=O)O [L-asparagine]
ammonia release by Nessler's reagent: the purified recombinant enzyme displayed the maximum activity and specificity towards the reaction substrate L-asparagine
